Consider four substances from patent US7737120B2 (Aicuris GmbH & Co. KG, priority 2004, dated 2010).

The subject of one data set is subtilisin. Kind of data set: subtilisin (1:50) in cleavage buffer (0.1 M ammonium hydrogencarbonate/0.5 M urea pH 8) with methanol. As to conditions: 37° C., up to 24 h.
In a further data set the test system is papain. Put plainly: papain (1:50) in cleavage buffer (0.1 M sodium phosphate/10 mM cysteine, 2 mM EDTA pH 6.5) with methanol. The settings on record: 37° C., up to 24 h.
For the next data set, the system named is bromelain. Put plainly: bromelain (1:50) in cleavage buffer (0.1 M sodium phosphate, 10 mM cysteine, 2 mM EDTA pH 6.5) with methanol. As to conditions: 37° C., up to 24 h.
Data set [1] concerns chymotrypsin. Put plainly: chymotrypsin (1:50) in cleavage buffer (0.1 M ammonium hydrogencarbonate/0.5 M urea pH 8) with methanol. The settings on record: 37° C., up to 24 h.
In data set [2] the test system is chymotrypsin. Kind of data set: preparative cleavage, chymotrypsin (1:25) in cleavage buffer (0.1 M ammonium hydrogencarbonate/0.5 M urea pH 8) with methanol. The settings on record: 37° C., up to about 70 min.
For data set [3], the system named is thermolysin. Kind of data set: thermolysin (1:50) in cleavage buffer (0.1 M ammonium hydrogencarbonate/0.5 M urea pH 8) with methanol. The settings on record: 37° C., up to 24 h.
The next data set deals with proteinase K. Kind of data set: proteinase K (1:50) in cleavage buffer (0.1 M sodium tetraborate pH 9) with methanol. The settings on record: 37° C., up to 24 h.
Data set [4] deals with thermolysin. Kind of data set: thermolysin (1:50) in cleavage buffer (0.1 M tris(hydroxymethyl)aminomethane/5 mM calcium chloride pH 7.45) with methanol. As to conditions: 37° C., up to 24 h.
The test system of a further data set is pepsin. Put plainly: pepsin. As to conditions: cited from earlier work.
Data set [5] is described as follows: the buffer used (enzymatic digestion experiments).
The test system of data set [6] is pepsin, trypsin, chymotrypsin and mucosal peptidase. As to conditions: cited from earlier work.
Data set [7] concerns Gram-positive aerobic and anaerobic bacteria. The settings on record: statement in words, background section; cited from earlier work.

“Also recorded” adds a separate entry of the source.

“D-Leu-Leu-Ala(3-cyclohexyl)-Leu(OH)-Leu-D-Arg-Ile-allo-Thr-Gly-Asn(OH)-Ser”: the fragment found result was “Peptide 4-11 (Leu(OH)-Leu-Arg-Ile-(allo)Thr-Gly-Asn(OH)-Ser); also recorded: Peptide 1-3 (Leu-Leu-PTHAla(3-cyclohexyl)*)” in the data set with subtilisin; “Peptide 5-11 (Leu-Arg-Ile-(allo)Thr-Gly-Asn(OH)-Ser); also recorded: Peptide 5-9 (Leu-Arg-Ile-(allo)Thr-Gly); also recorded: Peptide 10-11 (Asn(OH)-Ser); also recorded: Peptide 1-4 (Leu-Leu-PTHAla(3-cyclohexyl)*-Leu(OH))” in the data set with papain; “Peptide 1-9 (Leu-Leu-PTHAla(3-cyclohexyl)*-Leu(OH)-Leu-Arg-Ile-(allo)Thr-Gly); also recorded: Peptide 10-11 (Asn(OH)-Ser)” with bromelain; “Peptide 4-11 (Leu(OH)-Leu-Arg-Ile-(allo)Thr-Gly-Asn(OH)-Ser); also recorded: Peptide 1-3 (Leu-Leu-PTHAla(3-cyclohexyl)*); also recorded: deamidated form (1-11); also recorded: deamidated form (4-11)” in the data set with chymotrypsin [1]; “fragment 1-3 (LL(3-cyclohexyl)A); also recorded: fragment 4-11” with chymotrypsin [2]; “Peptide 1-2 (Leu-Leu)” in the data set on thermolysin [3].
In the case of “D-Leu-Leu-Phe-Leu(OH)-Leu-D-Arg-Ile-allo-Thr-Gly-Asn(OH)-Ser”, the fragment found entry is “Peptide 4-11 (Leu(OH)-Leu-Arg-Ile-(allo)Thr-Gly-Asn(OH)-Ser); also recorded: Peptide 1-3 (Leu-Leu-Phe)” in the data set with subtilisin; “Peptide 4-11 (Leu(OH)-Leu-Arg-Ile-(allo)Thr-Gly-Asn(OH)-Ser); also recorded: Peptide 5-11 (Leu-Arg-Ile-(allo)Thr-Gly-Asn(OH)-Ser)” with proteinase K; “Peptide 5-11 (Leu-Arg-Ile-(allo)Thr-Gly-Asn(OH)-Ser); also recorded: Peptide 5-9 (Leu-Arg-Ile-(allo)Thr-Gly); also recorded: Peptide 10-11 (Asn(OH)-Ser); also recorded: Peptide 1-4 (Leu-Leu-Phe-Leu(OH))” in the data set on papain; “Peptide 3-11 (Phe-Leu(OH)-Leu-Arg-Ile-(allo)Thr-Gly-Asn(OH)-Ser); also recorded: Peptide 1-2 (Leu-Leu)” with thermolysin [4]; “Peptide 1-9 (Leu-Leu-Phe-Leu(OH)-Leu-Arg-Ile-(allo)Thr-Gly); also recorded: Peptide 10-11 (Asn(OH)-Ser)” with bromelain; “Peptide 4-11 (Leu(OH)-Leu-Arg-Ile-(allo)Thr-Gly-Asn(OH)-Ser); also recorded: Peptide 1-3 (Leu-Leu-Phe)” in the data set with chymotrypsin [1]. In the data set with chymotrypsin [2], the fragment found result is given as “fragment 4-11; also recorded: fragment 1-3 (LLF)”.
In the case of “D-Leucyl-L-leucyl-[(3R)-3-hydroxy-L-phenylalanyl)]-[(3R)-3-hydroxy-L-leucyl]-L-leucyl-D-arginyl-L-isoleucyl-L-allothreonyl-glycyl-[(3S)-3-hydroxy-L-asparaginyl]-L-serine-C1^0.11-O3^0.3-lactone bistrifluoroacetate”, the not cleaved entry in the data set on pepsin is “no enzymatic digestion (in the case of pepsin)”. Also, the fragment found result in data set [5] is reported as “open-chain lysobactin; also recorded: β-hydroxyaspartate unit”.
For the substance “D-Leucyl-N-1-{(3S,6S,12S,15S,18R,21S,24S,27S,28R)-6-[(1S)-2-amino-1-hydroxy-2-oxoethyl-]18-(3-{[amino(imino)methyl]amino}propyl)-12-[(1S)-1-hydroxyethyl]-3-(hydroxymethyl)-24-[(1R)-1-hydroxy-2-methylpropyl]-21-isobutyl-15-[(1S)-1-methylpropyl]-2,5,8,11,14,17,20,23,26-nonaoxo-28-phenyl-1-oxa-4,7,10,13,16,19,22,25-octaazacyclo-octacosan-27-yl}-L-leucinamide Bistrifluoroacetate [Lysobactin]”, the enzymatic digestion entry in data set [6] is given as “no (such as in the case of pepsin, for example) or only inadequate enzymatic digestion”. For the same substance, the “activity against Gram-positive aerobic and anaerobic bacteria” value in data set [7] was “strong activity”.
